Assay results from paper PMC11018795, “The regulatory relationship between NAMPT and PD-L1 in cancer and identification of a dual-targeting inhibitor” (EMBO Molecular Medicine, 2024).
Several values for one entry are separate records, joined by “and”; a condition that tells them apart may be missing. Equal values may be shown once.

Key:
[1] = test system: LLC OE PD-L1 cells co-cultured with T cells; assay: T cell-mediated tumor cell killing assay, LLC OE PD-L1; type: cell-based; conditions: Mus musculus, 100 nM, read-out: inhibition rate (T cell-mediated killing)
Procedure: To acquire activated T cells, human peripheral blood mononuclear cells (PBMC; LTS1077, Yanjin Biological) were cultured in CTSTM AIIM VTM SFM (A3021002; Gibco) with ImmunoCult Human CD3/CD28/CD2 T-cell activator (25 µL/mL; […] Technologies, Cat#10970) for 48 h according to the manufacturer’s protocol. The experiments were performed using mouse anti-CD3 antibody (1 µg/mL; Thermo Scientific, 16-0032-82) and anti-CD28 antibody(5 µg/mL; Thermo Scientific, 16-0281-82). Cancer cells were allowed to adhere to the plates overnight and then incubated for 48 h with activated T cells in the presence or absence of DX ([…]). Different proportions of cancer cells and activated T cells were utilized according to the purpose of each experiment. The T-cell proliferation assay was 1:3; the T-cell killing assay was 1:10; T cells and cell debris were removed by PBS washing, and the living cancer cells were then quantified by a spectrometer at OD (570 nm) followed by crystal violet staining. page 12: Fig 3: […] expression patterns. […] Data was obtained from the TCGA database. (B) T cell-mediated tumor cell killing assay. T cells were co-cultured with LLC Vector, […] CQ-85, or BMS202. […] stained by crystal violet. The relative added value of activated T cells is shown below. Data are presented as mean ± SEM; *P < 0.05, **P < 0.01, ***P < 0.001, compared with control. n.s., not significant. […]

PD-1/PD-L1 interaction = biological target: T1, PD-1/PD-L1 interaction (Homo sapiens, UniProt Q9NZQ7); assay: In vitro PD-1/PD-L1-binding assay (Cisbio kit)
T1 construct: purchased Cisbio 64ICP01PEG
Procedure: The biochemical activity of the final compounds was evaluated using a PD-1/PD-L1 binding assay kit (Cisbio, cat. No. 64ICP01PEG). Experiments were performed according to the manufacturer’s instructions.

NAMPT = NAMPT (Homo sapiens, UniProt P43490); assay: Cellular thermal shift assay (CETSA), NAMPT, A2780 cells; type: binding; design: endogenous in cells; host or cells: A2780; conditions: for Relative band intensity (NAMPT): LZFPN-90 20 nM
Procedure: The cells were resuspended in 1× PBS supplemented with protease inhibitors (Roche) and then divided into strip tubes for 30 min. The tubes were centrifuged at 15,000× g at 4 °C for 15 min. After centrifugation, the supernatant was divided into DMSO and LZFPN-90 (20 nM) groups, and incubated at room temperature for 30 min. According to standard procedures (38 °C, 42 °C, 46 °C, 50 °C, 54 °C, 58 °C, 62 °C, 66 °C), each temperature group was heated for 3 min, incubated at room temperature for 3 min. Then centrifuged at 20,000× g for 25 min, the supernatant was collected, 1× loading buffer was added, the mixture was heated in a metal bath at 95 °C for 10 min, and the amount of non-denatured protein per sample was quantified by western blotting.

[2] = test system: LLC sh PD-L1 cells co-cultured with T cells; assay: T cell killing assay (colony formation), LLC sh PD-L1; type: cell-based; conditions: Mus musculus, 72 h, 100 nM, three days, read-out: inhibition rate of colony formation number
Procedure: To acquire activated T cells, human peripheral blood mononuclear cells (PBMC; LTS1077, Yanjin Biological) were cultured in CTSTM AIIM VTM SFM (A3021002; Gibco) with ImmunoCult Human CD3/CD28/CD2 T-cell activator (25 μL/mL; […] Technologies, Cat#10970) for 48 h according to the manufacturer's protocol. The experiments were performed using mouse anti-CD3 antibody (1 μg/mL; Thermo Scientific, 16-0032-82) and anti-CD28 antibody(5 μg/mL; Thermo Scientific, 16-0281-82). […] Different proportions of cancer cells and activated T cells were utilized according to the purpose of each experiment. The T-cell proliferation assay was 1:3; the T-cell killing assay was 1:10; T cells and cell debris were removed by PBS washing, and the living cancer cells were then quantified by a spectrometer at OD (570 nm) followed by crystal violet staining. page 28: Fig 8: Effects of LZFPN-90 and NMN on tumor immune microenvironment. […] (C) T cells were co-cultured with LLC cells, and treated with LZFPN-90 (100 nM), and NMN (1 mM) to detect the cell proliferation by T cell killing assay. Data are presented as mean ± SEM; *P < 0.05, **P < 0.01, ***P < 0.001 compared with control. n.s., not significant. (1 picture or pasted object on this page, not shown here)

LLC cells = assay: Cell cycle analysis, LLC; type: cell-based, mouse
Text: Supplement 44321_2024_51_MOESM5_ESM.zip/Fig4-D.xlsx, sheet "Sheet1" | column: G0/G1; S; G2/M

LLC OE NAMPT cells = assay: Cell viability 72 h, LLC OE NAMPT (Fig 4C); type: cell-based, mouse
Procedure: In vitro cell viability was determined using a Cell Counting Kit-8 (MCE) assay. Cells (5 × 10^3/well) were seeded in 96-well culture plates. After 24 h, they were incubated with various concentrations of the test compounds for 48–72 h at 37 °C in a 5% CO2 incubator. Next, 10% of the CCK-8 solution was added to each well, and the plates were incubated for an additional 4 h at 37 °C. The optical density of each well was measured at 450 nm using a multimode plate reader (Molecular Devices, San Jose, CA, USA). Cells (5 × 10^3/well) were seeded into a 96-well plate and cultured at 37 °C in a 5% CO2 incubator. […] At the final time point, 10 μl MTT solution (5 mg/ml, Sigma, Burlington, MA, USA) was added to each well and incubated for an additional 4 h at 37 °C in a 5% CO2 incubator. Then,100 μl of DMSO was added to each well and mixed thoroughly. Optical density was measured at 492 nm using a microplate reader (Molecular Devices, San Jose, CA, USA).

Sequence of NAMPT (P43490 whole entry): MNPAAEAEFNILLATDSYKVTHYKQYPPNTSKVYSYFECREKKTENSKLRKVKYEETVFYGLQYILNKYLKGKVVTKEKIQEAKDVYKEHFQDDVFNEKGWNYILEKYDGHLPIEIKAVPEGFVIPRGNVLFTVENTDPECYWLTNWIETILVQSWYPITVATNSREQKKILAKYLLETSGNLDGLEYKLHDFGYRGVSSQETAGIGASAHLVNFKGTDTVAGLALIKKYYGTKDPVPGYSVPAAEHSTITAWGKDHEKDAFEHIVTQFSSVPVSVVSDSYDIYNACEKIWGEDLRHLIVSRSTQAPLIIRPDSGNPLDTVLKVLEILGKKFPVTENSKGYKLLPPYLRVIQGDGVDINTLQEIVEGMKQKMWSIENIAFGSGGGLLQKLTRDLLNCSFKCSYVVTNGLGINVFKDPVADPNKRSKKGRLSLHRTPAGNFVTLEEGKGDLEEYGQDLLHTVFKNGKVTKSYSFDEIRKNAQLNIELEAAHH
T1 sequence (Q9NZQ7 19-238 limits assumed): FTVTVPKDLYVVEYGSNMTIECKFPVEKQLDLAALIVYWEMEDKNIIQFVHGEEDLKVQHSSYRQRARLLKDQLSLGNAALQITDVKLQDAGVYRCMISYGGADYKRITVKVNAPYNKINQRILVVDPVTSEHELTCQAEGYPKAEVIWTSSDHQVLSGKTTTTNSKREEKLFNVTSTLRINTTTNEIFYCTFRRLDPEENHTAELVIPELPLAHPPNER

## CCN(CC)CCCOc1cccc(-c2cccc3c2CCN3C(=O)c2ncc(CNC(=NC#N)Nc3ccncc3)s2)c1 [LZFPN-90]
[1]
  inhibition at 0.1 µM: ~60%
PD-1/PD-L1 interaction
  IC50: 13 nM
NAMPT; LZFPN-90 20 nM vs blank group
  thermal stability of NAMPT: the stability of NAMPT and PD-L1 increased
NAMPT; 38 ℃
  Relative band intensity (NAMPT): 1.21 and 1.06
NAMPT; 42 ℃
  Relative band intensity (NAMPT): 1.16 and 1.1
NAMPT; 46 ℃
  Relative band intensity (NAMPT): 1.06 and 1.08
NAMPT; 50 ℃
  Relative band intensity (NAMPT): 1.08 and 1.02
NAMPT; 54 ℃
  Relative band intensity (NAMPT): 1.25 and 1.19
NAMPT; 58 ℃
  Relative band intensity (NAMPT): 1.21 and 1.16
NAMPT; 62 ℃
  Relative band intensity (NAMPT): 1.18 and 1.13
NAMPT; 66 ℃
  Relative band intensity (NAMPT): 0.52 and 0.48
[2]
  inhibition at 0.1 µM: 21.9%
LLC cells; LZ90 20
  Cell cycle G0/G1: 32.7 and 33.42 and 33.1
  Cell cycle G2/M: 8.23 and 9.12 and 10.84
  Cell cycle S: 58.16 and 55.72 and 58.65
LLC cells; LZ90 40
  Cell cycle G0/G1: 31.17 and 30.64 and 32.74
  Cell cycle G2/M: 10.63 and 9.6 and 10.7
  Cell cycle S: 59.19 and 58.63 and 56.62
LLC cells; LZ90 60
  Cell cycle G0/G1: 31.65 and 30.97 and 32.77
  Cell cycle G2/M: 11.3 and 9.97 and 11.14
  Cell cycle S: 58.36 and 57.86 and 55.9
LLC OE NAMPT cells; head LLC OE NAMPT/PD-L1 (legend: LLC OE NAMPT), LZ90 0.25 (nM), 0 = 100
  Relative viability: 77.2963 and 85.357 and 93.8244
LLC OE NAMPT cells; head LLC OE NAMPT/PD-L1, LZ90 1
  Relative viability: 81.6379 and 75.0704 and 92.5933
LLC OE NAMPT cells; head LLC OE NAMPT/PD-L1, LZ90 4
  Relative viability: 70.2024 and 73.3725 and 88.779
LLC OE NAMPT cells; head LLC OE NAMPT/PD-L1, LZ90 16
  Relative viability: 63.5687 and 62.4896 and 67.6771
LLC OE NAMPT cells; head LLC OE NAMPT/PD-L1, LZ90 64
  Relative viability: 57.8886 and 54.3565 and 56.8184
LLC OE NAMPT cells; head LLC OE NAMPT/PD-L1, LZ90 256
  Relative viability: 39.2756 and 40.3926 and 41.8466
